pIC50: −log10 of the molar value. Like-named read-outs stand apart in the source and are kept apart here. Square brackets hold non-standard residues; d marks the D form. Peptide text beside a SMILES is read from it. * marks the point of attachment. 2Pal = N[C@@H](Cc1ccccn1)C(=O)O; dPhg = N[C@@H](C(=O)O)c1ccccc1; Bn = c1ccc(C*)cc1; Ms = CS(=O)(=O)*
How the values were obtained:
Assay type in all cases: biochemical
[1] = target: T1, Recombinant human calpain I (Homo sapiens, UniProt P07384); assay: Inhibition of calpain I activity
T1 construct: made in house
T1 sequence (P07384 1-714): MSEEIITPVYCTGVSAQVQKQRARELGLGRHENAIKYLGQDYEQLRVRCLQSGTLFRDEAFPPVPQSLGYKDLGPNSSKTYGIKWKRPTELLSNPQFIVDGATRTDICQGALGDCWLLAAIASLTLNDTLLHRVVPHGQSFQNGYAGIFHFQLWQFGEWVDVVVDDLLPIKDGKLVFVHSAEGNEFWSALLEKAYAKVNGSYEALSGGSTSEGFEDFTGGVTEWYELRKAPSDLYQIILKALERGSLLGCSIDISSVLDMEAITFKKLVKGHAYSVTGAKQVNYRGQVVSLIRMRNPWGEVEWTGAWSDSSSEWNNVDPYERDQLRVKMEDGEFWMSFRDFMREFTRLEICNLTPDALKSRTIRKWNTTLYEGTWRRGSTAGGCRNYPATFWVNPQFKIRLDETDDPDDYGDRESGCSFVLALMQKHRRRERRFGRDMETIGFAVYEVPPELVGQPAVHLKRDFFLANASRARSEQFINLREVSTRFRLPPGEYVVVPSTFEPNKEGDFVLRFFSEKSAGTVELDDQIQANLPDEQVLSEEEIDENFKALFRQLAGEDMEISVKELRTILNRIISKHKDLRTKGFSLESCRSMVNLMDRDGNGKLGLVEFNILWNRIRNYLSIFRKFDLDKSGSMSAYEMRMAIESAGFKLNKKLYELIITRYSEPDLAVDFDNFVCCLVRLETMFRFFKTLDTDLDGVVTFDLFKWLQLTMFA
Method: To evaluate inhibitory activity, stock solutions (40 times concentrated) of exemplary compounds of the invention were prepared in 100% anhydrous DMSO and 5 μL of each inhibitor preparation were aliquoted into each of three wells of a 96-well plate. Recombinant human calpain I, prepared by the method of Meyer et al. (Biochem. […] To start the reaction, 20 μL of 50 mM CaCl2 in assay buffer was added to all wells of the plate, excepting three, which were used as background signal baseline controls. Substrate hydrolysis was monitored every 5 minutes for a total of 30 minutes. […] Inhibition of calpain I activity was calculated as the percent decrease in the rate of substrate hydrolysis in the presence of inhibitor (VI) relative to the rate in its absence (VO). Comparison between VO and VI was made within the linear range for substrate hydrolysis. For screening, compounds were tested at 10, 1.0, and 0.1 μM. […] The results were plotted as % inhibition versus log inhibitor concentration and the IC50 was calculated from linear regression of the data. Apparent second order rate constants were determined from analysis of reaction progress curves under pseudo-first order conditions. Each determination represents the means of three or more independent single cuvette analyses continually monitored via a Perkin-Elmer LS50B spectrofluorimeter. The rate of inhibition of hydrolysis was obtained by fitting the curve to the exponential equation (1): […]

cathepsin B = target: T2, cathepsin B (Homo sapiens, UniProt P07858); assay: Inhibition of cathepsin B; conditions: for inhibition at 1 µM: read-out: Cat B % I @ 1 uM; for pIC50: read-out: Cat B IC50
T2 construct: purchased Calbiochem 219364
Method: (§1) Additionally,the order of reagents added to the plate was altered because both enzymes are constitutively active. Following inhibitor addition to the plates, appropriate 2× concentrated stock dilutions of the enzyme preparations were made in assay buffer and 100 μl added to each well. The assay was initiated by addition of 100 μl of 2× concentrated stock dilution of substrate in assay buffer.

cathepsin L = target: T3, cathepsin L (Homo sapiens, UniProt P07711); assay: Inhibition of cathepsin L; conditions: for inhibition at 1 µM: Table III, read-out: Cat L % I @ 1 uM
T3 construct: purchased Calbiochem 219402
T3 sequence (P07711 114-288 limits assumed): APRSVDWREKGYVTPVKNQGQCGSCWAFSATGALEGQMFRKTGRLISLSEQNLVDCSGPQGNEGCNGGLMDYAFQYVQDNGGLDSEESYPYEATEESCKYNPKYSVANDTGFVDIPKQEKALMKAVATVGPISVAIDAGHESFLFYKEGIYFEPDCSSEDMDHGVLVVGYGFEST
T3 sequence (P07711 292-333 limits assumed): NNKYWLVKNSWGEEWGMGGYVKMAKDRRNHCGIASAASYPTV
Method: as §1

thrombin = target: T4, thrombin (Homo sapiens, UniProt P00734); assay: Inhibition of thrombin; conditions: 10 uM, read-out: Thrombin % I @ 10 uM
T4 construct: purchased Sigma Chem. Co. T-7009

α-chymotrypsin = target: T5, α-chymotrypsin (Bos taurus, UniProt P00766); assay: Inhibition of α-chymotrypsin; conditions: read-out: Chymotrypsin % I @ 10 uM
T5 construct: purchased Sigma Chem. Co. C-3142
Method: Additionally, because α-chymotrypsin is not a calcium sensitive enzyme and is constitutively active, following addition of inhibitor stocks to the 96 well plates, 100 μl of a 2-fold concentrated stock of enzyme in dilution buffer was first added and the reaction started by addition of 100 μl of a 2-fold concentrated stock of substrate in assay buffer. Substrate hydrolysis was monitored every 5 minutes up to 30 minutes using a Fluoroskan II ([…]).

| Structure (SMILES) | inhibition at 0.1 µM ([1]; Table III) | inhibition at 1 µM (cathepsin B; Table III) | inhibition at 1 µM (cathepsin L) | inhibition at 10 µM (thrombin; Table III) | inhibition at 10 µM (α-chymotrypsin; Table III, 10 uM) | pIC50 ([1]; Table III) | pIC50 (cathepsin B; Table III) | inhibition at 10 µM (α-chymotrypsin) | pIC50 ([1]; Table II) | pIC50 (cathepsin B; Table II) | pIC50 (cathepsin L; Table II, read-out: Cat L IC50) | inhibition at 10 µM (thrombin; Table II) | inhibition at 10 µM (α-chymotrypsin; Table II, 10 uM) |
| --- | --- | --- | --- | --- | --- | --- | --- | --- | --- | --- | --- | --- | --- |
| Cc1nn(C)c(Cl)c1S(=O)(=O)N[C@H](COCc1ccccc1)C(=O)N[C@H](C=O)Cc1ccccc1 [Compound 91] | 30% | 68% | 100% | 0% | 53% | – | – | – | – | – | – | – | – |
| CS(=O)(=O)N[C@H](COCc1ccccc1)C(=O)N[C@H](C=O)Cc1ccccn1 [Compound 109] (Ms-[dS](Bn)-[2Pal]-aldehyde) | 59% | 70% | 98% | 0% | 0% | 7.40 | – | – | – | – | – | – | – |
| CS(=O)(=O)N[C@@H](C(=O)N[C@H](C=O)Cc1ccccc1)c1ccccc1 [Compound 76] (Ms-[dPhg]-Phe-aldehyde) | 88% | 79% | 90% | 1% | 30% | 7.89 | 6.60 | – | – | – | – | – | – |
| CS(=O)(=O)N[C@H](COCc1ccccc1)C(=O)N[C@@H](Cc1ccccc1)C1N(c2ccccc2)CCN1c1ccccc1 [Compound 132] | 63% | 78% | 100% | 0% | 0% | – | – | – | – | – | – | – | – |
| O=C[C@H](Cc1ccccc1)NC(=O)[C@@H](COCc1ccccc1)NS(=O)(=O)c1ccccc1 [Compound 48] | 87% | 99% | 100% | 3% | 0% | 7.51 | 7.96 | – | – | – | – | – | – |
| CS(=O)(=O)N[C@H](Cc1ccc(OCc2ccccc2)cc1)C(=O)N[C@H](C=O)Cc1ccccc1 [Compound 89] (Ms-[dY](Bn)-Phe-aldehyde) | 82% | 100% | 97% | 0% | 4% | 7.82 | – | – | – | – | – | – | – |
| CS(=O)(=O)N[C@H](Cc1c[nH]c2ccccc12)C(=O)N[C@H](C=O)Cc1ccccc1 [Compound 77] (Ms-[dW]-Phe-aldehyde) | 91% | 90% | 93% | 0% | 0% | 7.85 | – | – | – | – | – | – | – |
| CC(=O)Nc1ccc(S(=O)(=O)N[C@H](COCc2ccccc2)C(=O)N[C@H](C=O)Cc2ccccc2)cc1 [Compound 51] | 92% | 100% | 100% | 21% | 3% | 7.49 | 7.85 | – | – | – | – | – | – |
| O=C[C@H](Cc1ccccc1)NC(=O)[C@@H](Cc1ccccc1)NS(=O)(=O)c1cccc2cccnc12 [Compound 74] | 83% | 100% | 100% | 6% | 13% | 7.48 | – | – | – | – | – | – | – |
| CS(=O)(=O)N[C@H](COCc1ccccc1)C(=O)N[C@H](C=O)Cc1ccc(OCc2ccccc2)cc1 [Compound 90] (Ms-[dS](Bn)-Tyr(Bn)-aldehyde) | 99% | 100% | 99% | 0% | 0% | 8.30 | – | – | – | – | – | – | – |
| CCS(=O)(=O)N[C@H](COCc1ccccc1)C(=O)N[C@H](C=O)Cc1ccccc1 [Compound 50] | 95% | 99% | 98% | 9% | – | 7.92 | – | 15% | – | – | – | – | – |
| Cc1ccc(S(=O)(=O)N[C@H](COCc2ccccc2)C(=O)N[C@H](C=O)Cc2ccccc2)cc1 [Compound 49] | 75% | 99% | 100% | 4% | 1% | 7.57 | – | – | – | – | – | – | – |
| C[C@@H](NS(=O)(=O)c1ccccc1)C(=O)N[C@H](C=O)Cc1ccccc1 [Compound 104] | 45% | 86% | 97% | 7% | 6% | 7.03 | – | – | – | – | – | – | – |
| CS(=O)(=O)N[C@H](COCc1ccccc1)C(=O)N[C@@H](Cc1ccccc1)C(O)CCc1ccccc1 (stereo partly drawn) [Compound 124] | 20% | 27% | 17% | 2% | 0% | – | – | – | – | – | – | – | – |
| CC(=O)N[C@H](CC(=O)N1CCc2ccccc2C1)C(=O)N[C@H](C=O)Cc1ccccc1 [Compound 9, 2-THIQ-C(=O)CH2 CH(NHC(=O)CH3)C(=O)-Phe--H] | – | – | – | – | – | – | – | – | 7.08 | 4.96 | 5.70 | 0% | 2% |
| C[C@H](OCc1ccccc1)[C@@H](NS(C)(=O)=O)C(=O)N[C@H](C=O)Cc1ccccc1 [Compound 43] (Ms-[dT](Bn)-Phe-aldehyde) | 95% | 98% | 68% | 0% | 3% | 7.92 | 7.24 | – | – | – | – | – | – |
| CCNC(=O)C(=O)[C@H](Cc1ccccc1)NC(=O)[C@@H](COCc1ccccc1)NS(C)(=O)=O [Compound 81] | 18% | 73% | 100% | 0% | 2% | 6.74 | – | – | – | – | – | – | – |

Reference: US5852007A, “Cysteine and serine protease inhibitors containing D-amino acid at the P2 position, methods of making same, and methods of using same” (priority 1997, dated 1998)
